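Growth conditions: 96-well plates. Treatment: test compound, 48 hours, 5 concentrations. Analysis: linear interpolation between bracketing concentrations; unreached endpoints set to highest concentration. TGI denotes the concentration required for complete inhibition of growth.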 Where a SMILES comes first, the peptide text is derived from it. The star is where a group is joined. Boc = CC(C)(C)OC(=O)*
How the values were obtained:
Assay in all cases: NCI anticancer screen, dose series, 48 h
BT-549 breast = system: BT-549 breast
CAKI-1 renal = system: CAKI-1 renal
COLO 205 colon = system: COLO 205 colon
DU-145 prostate = system: DU-145 prostate
HCT-15 colon = system: HCT-15 colon
HS 578T breast = system: HS 578T breast
K-562 leukemia = system: K-562 leukemia
MALME-3M melanoma = system: MALME-3M melanoma
MDA-MB-435 = system: MDA-MB-435
MDA-N = system: MDA-N
MOLT-4 leukemia = system: MOLT-4 leukemia
NCI-H226 lung = system: NCI-H226 lung
SF-268 CNS = system: SF-268 CNS
SK-MEL-2 melanoma = system: SK-MEL-2 melanoma
SN12C renal = system: SN12C renal
SR leukemia = system: SR leukemia

Structure (SMILES) | TGI (BT-549 breast) | TGI (CAKI-1 renal) | TGI (COLO 205 colon) | TGI (DU-145 prostate) | TGI (HCT-15 colon) | TGI (HS 578T breast) | TGI (K-562 leukemia) | TGI (MALME-3M melanoma) | TGI (MDA-MB-435) | TGI (MDA-N) | TGI (MOLT-4 leukemia) | TGI (NCI-H226 lung) | TGI (SF-268 CNS) | TGI (SK-MEL-2 melanoma) | TGI (SN12C renal) | TGI (SR leukemia)
C=C[C@]1(C)CC(=O)C(C(C)C=O)[C@]12C(=O)Oc1cccc(C)c1C2=O (some centres not stated) | 28.4 µM | 27.6 µM | 31.2 µM | 30.6 µM | 28.3 µM | 42.7 µM | 53.2 µM | 34.5 µM | 29.3 µM | 27.6 µM | > 100 µM | 35 µM | 43.3 µM | 32.4 µM | 30.3 µM | > 100 µM
COc1ccc2nc3cc([N+](=O)[O-])ccc3c(NNc3ccc([N+](=O)[O-])cc3)c2c1 | > 100 µM | 29.6 µM | > 100 µM | > 100 µM | > 100 µM | > 100 µM | > 100 µM | > 92.5 µM | > 100 µM | > 100 µM | > 100 µM | > 56.4 µM | > 100 µM | > 96.2 µM | > 100 µM | > 69 µM
O=C(O)C1CC(C2CCCCN2)CN2CCCCC12 (configuration not stated) | > 100 µM | > 100 µM | > 100 µM | > 100 µM | > 100 µM | > 100 µM | > 100 µM | > 100 µM | > 100 µM | > 100 µM | > 100 µM | > 100 µM | > 100 µM | > 100 µM | > 100 µM | > 100 µM
COc1cccc(C2c3cc4c(cc3OC(NNC(N)=O)C2C)OCO4)c1O (configuration not stated) | > 100 µM | > 77.9 µM | 9.05 µM | > 100 µM | > 100 µM | > 50.8 µM | > 100 µM | > 67.7 µM | 0.523 µM | 0.653 µM | > 100 µM | 9.4 µM | > 72.2 µM | 44.2 µM | > 100 µM | > 19.8 µM
O=C1C=CC(=O)c2c(O)c(NCCO)c(Cl)c(O)c21 | > 5.74 µM | > 10 µM | 3.4 µM | 4.98 µM | 6.47 µM | > 10 µM | 8.23 µM | 2.71 µM | 4.23 µM | 3.42 µM | > 10 µM | > 10 µM | > 10 µM | > 6.68 µM | > 5.55 µM | > 6.94 µM
CC(NC(=O)C1CCCN1C(=O)CNC(=O)OC(C)(C)C)C(=O)O (stereo not drawn) (Boc-Gly-Pro-Ala-OH; configuration not given here) | > 100 µM | > 100 µM | > 100 µM | > 100 µM | > 100 µM | > 100 µM | > 100 µM | > 100 µM | > 100 µM | > 100 µM | > 100 µM | > 100 µM | > 100 µM | > 100 µM | > 100 µM | > 100 µM
CCOc1cc(/C=N/c2nc3cc4sc(/N=C/c5ccc(O)c(OCC)c5)nc4cc3s2)ccc1O | > 100 µM | > 100 µM | > 100 µM | > 100 µM | > 100 µM | > 100 µM | > 100 µM | > 100 µM | > 100 µM | > 100 µM | > 100 µM | > 100 µM | > 100 µM | > 100 µM | > 100 µM | > 100 µM
O=C(c1cc(Cl)cc(Cl)c1)N(Cc1cccnc1)C(=S)N(Cc1cccnc1)C(=O)c1cc(Cl)cc(Cl)c1 | 81.5 µM | > 100 µM | 38.5 µM | > 100 µM | 83.3 µM | > 100 µM | > 100 µM | > 100 µM | > 100 µM | > 100 µM | > 100 µM | > 100 µM | > 100 µM | 99.2 µM | > 100 µM | > 100 µM
O=C(CCc1ccc(O)c(O)c1)NCCc1ccccc1 | > 89.1 µM | 41 µM | > 100 µM | > 100 µM | > 100 µM | > 100 µM | 49.6 µM | > 100 µM | 29.3 µM | 43.3 µM | > 100 µM | > 100 µM | > 100 µM | > 93.7 µM | > 31.6 µM | 47.5 µM
CC1(c2nc3ccccc3[nH]2)CCC(C#N)C(C)(C)O1 (configuration not stated) | > 100 µM | > 100 µM | > 100 µM | > 100 µM | > 100 µM | > 100 µM | > 100 µM | > 100 µM | > 100 µM | > 100 µM | > 100 µM | > 100 µM | > 100 µM | > 100 µM | > 100 µM | > 100 µM
Brc1c2c(c(Br)c3nsnc13)N=S=N2 | 26.9 µM | 40.4 µM | > 60.1 µM | > 100 µM | 60 µM | 75 µM | 33.3 µM | > 72.6 µM | > 74.4 µM | > 73 µM | 68.9 µM | > 76.6 µM | 75.4 µM | 51 µM | 32.8 µM | 14.1 µM
CCCCCCc1cc2cc(C(=O)NCc3ccccc3)c(=N)oc2cc1O | > 100 µM | > 100 µM | > 100 µM | > 100 µM | > 100 µM | > 100 µM | > 100 µM | > 100 µM | > 100 µM | > 100 µM | > 100 µM | > 100 µM | > 100 µM | > 100 µM | > 100 µM | > 100 µM
